Measurements taken from the CheMixHub viscosity set.

Experiment: xn = mol fraction of the nth substance listed

O=C(O)C1CCCCC1 + CCCCCCCCCCO
viscosity [mPa·s], 101 kPa
Conditions | 310 K | 320 K
x2 = 0.0377 | 12.1 | 8.54
x2 = 0.0625 | 11.8 | 8.32
x2 = 0.1776 | 10.6 | 7.57
x2 = 0.2753 | 9.61 | 6.94
x2 = 0.4103 | 8.79 | 6.39
x2 = 0.4952 | 8.45 | 6.15
x2 = 0.5659 | 8.15 | 5.94
x2 = 0.6678 | 7.86 | 5.72
x2 = 0.7657 | 7.7 | 5.6
x2 = 0.8462 | 7.48 | 5.48
x2 = 0.9063 | 7.43 | 5.36
x2 = 0.9593 | 7.41 | 5.3

O=P(O)(O)O + CCCCCCCCO
viscosity [mPa·s], 101 kPa
Conditions | x1 = 0.0266 | x1 = 0.0485 | x1 = 0.0865 | x1 = 0.1055 | x1 = 0.149 | x1 = 0.1867 | x1 = 0.2054 | x1 = 0.2487 | x1 = 0.2753 | x1 = 0.3073
293.15 K | 10.8 | 11.16 | 14.06 | 15.07 | 19.85 | 30.76 | 35.99 | 40.67 | 45.65 | 48.76
303.15 K | 6.465 | 7.085 | 8.327 | 9.414 | 11.8 | 15.79 | 17.99 | 21.76 | 25.77 | 28
313.15 K | 4.823 | 5.02 | 5.655 | 6.55 | 7.186 | 8.765 | 9.786 | 11.34 | 14.18 | 15.19
323.15 K | 3.614 | 3.765 | 3.995 | 4.223 | 4.716 | 5.176 | 5.564 | 6.076 | 6.308 | 6.896

CCCOCC(C)OCC(C)O (configuration not stated) + CCCCCCCO
298.15 K, 101 kPa
Conditions | viscosity [mPa·s]
x1 = 0.0145 | 5.795
x1 = 0.0297 | 5.725
x1 = 0.072 | 5.58
x1 = 0.1172 | 5.426
x1 = 0.1578 | 5.332
x1 = 0.2004 | 5.236
x1 = 0.2276 | 5.185
x1 = 0.2594 | 5.134
x1 = 0.3052 | 5.067
x1 = 0.4171 | 4.913
x1 = 0.4502 | 4.864
x1 = 0.5104 | 4.775
x1 = 0.5572 | 4.699
x1 = 0.6014 | 4.616
x1 = 0.6573 | 4.51
x1 = 0.7008 | 4.419
x1 = 0.7589 | 4.295
x1 = 0.8 | 4.207
x1 = 0.8512 | 4.098
x1 = 0.9118 | 3.985
x1 = 0.9578 | 3.916
x2 = 0.009 | 3.879
x2 = 0.0121 | 3.88

Cl + CCCCCCCO
298.15 K, 101 kPa
Conditions | viscosity [mPa·s]
x1 = 0.05 | 6.22
x1 = 0.1 | 7.02
x1 = 0.15 | 7.6
x1 = 0.19 | 8.18
x1 = 0.23 | 8.66
x1 = 0.26 | 9.02
x1 = 0.29 | 9.22
x1 = 0.32 | 9.3
x1 = 0.34 | 9.26
x1 = 0.37 | 9.08
x1 = 0.39 | 8.86
x1 = 0.41 | 8.62
x1 = 0.43 | 8.4
x1 = 0.45 | 8.2

CCCOCC(C)OCC(C)O (configuration not stated) + CCCCCO
298.15 K, 101 kPa
Conditions | viscosity [mPa·s]
x1 = 0.0566 | 3.194
x1 = 0.1564 | 3.499
x1 = 0.2104 | 3.49
x1 = 0.2577 | 3.486
x1 = 0.3103 | 3.484
x1 = 0.3524 | 3.483
x1 = 0.4027 | 3.481
x1 = 0.4592 | 3.494
x1 = 0.5107 | 3.516
x1 = 0.5585 | 3.545
x1 = 0.6219 | 3.59
x1 = 0.6862 | 3.64
x1 = 0.7322 | 3.684
x1 = 0.7995 | 3.733
x1 = 0.9032 | 3.807
x1 = 0.9629 | 3.849
x2 = 0.0139 | 3.867

CC(=O)OCCC(C)C + CCCCN
303.15 K, 101 kPa
Conditions | viscosity [mPa·s]
x2 = 0.2734 | 0.7086
x2 = 0.4416 | 0.6996
x2 = 0.5646 | 0.6833
x2 = 0.6446 | 0.6711
x2 = 0.7489 | 0.6443
x2 = 0.8075 | 0.6212
x2 = 0.8664 | 0.5934
x2 = 0.8969 | 0.5868

CCCCCCCC/C=C\CCCCCCCC(=O)OCC + CCCCO
viscosity [mPa·s], 100 kPa
Conditions | x1 = 0.1 | x1 = 0.2 | x1 = 0.3 | x1 = 0.4 | x1 = 0.5 | x1 = 0.6 | x1 = 0.7 | x1 = 0.8 | x1 = 0.9
293.15 K | 3.187 | 3.558 | 3.946 | 4.315 | 4.68 | 5.024 | 5.358 | 5.682 | 6.011
298.15 K | 2.818 | 3.143 | 3.481 | 3.808 | 4.131 | 4.437 | 4.732 | 5.013 | 5.31
303.15 K | 2.491 | 2.782 | 3.08 | 3.371 | 3.649 | 3.918 | 4.175 | 4.419 | 4.678
308.15 K | 2.217 | 2.48 | 2.746 | 3.002 | 3.25 | 3.486 | 3.713 | 3.931 | 4.16
313.15 K | 1.983 | 2.223 | 2.46 | 2.683 | 2.897 | 3.103 | 3.3 | 3.49 | 3.691
318.15 K | 1.776 | 1.998 | 2.214 | 2.421 | 2.62 | 2.81 | 2.991 | 3.165 | 3.35
323.15 K | 1.6 | 1.806 | 2.002 | 2.192 | 2.371 | 2.543 | 2.707 | 2.865 | 3.032

CC(=O)OCCC(C)C + CCCCOC(C)=O
viscosity [mPa·s], 101 kPa
Conditions | x1 = 0.2 | x1 = 0.4 | x1 = 0.6 | x1 = 0.8
293.15 K | 0.75 | 0.776 | 0.802 | 0.831
313.15 K | 0.575 | 0.592 | 0.611 | 0.629

CCCCCCCC/C=C\CCCCCCCC(=O)OCC + CCCO
Conditions | viscosity [mPa·s]
303.15 K, 101 kPa, x2 = 0.2 | 4.435

CCCOCC(C)OCC(C)O (configuration not stated) + CCCO
298.15 K, 101 kPa
Conditions | viscosity [mPa·s]
x1 = 0.0061 | 1.977
x1 = 0.0137 | 1.998
x1 = 0.028 | 2.036
x1 = 0.0763 | 2.163
x1 = 0.1234 | 2.28
x1 = 0.1783 | 2.416
x1 = 0.2361 | 2.556
x1 = 0.3132 | 2.74
x1 = 0.3684 | 2.862
x1 = 0.4279 | 2.985
x1 = 0.4905 | 3.102
x1 = 0.5267 | 3.164
x1 = 0.5714 | 3.239
x1 = 0.6634 | 3.388
x1 = 0.7271 | 3.495
x1 = 0.8017 | 3.617
x1 = 0.8701 | 3.728
x1 = 0.9055 | 3.78
x1 = 0.9497 | 3.837
